Tests used:
[1] = system: cyno-LEPR; experiment: STAT3-luciferase reporter assay in HEK293-STAT3Luc-cmLepR2 cells; format: cell-based, Macaca fascicularis
Description: (§1) LEPR is a cell surface single-pass transmembrane receptor. Activation of LEPR leads to phosphorylation of intracellular STAT3 (pSTAT3) and subsequent target gene transcription. To measure LEPR activation by anti-LEPR antibodies in the present disclosure, five independent STAT-luciferase reporter cell lines were established by introducing DNA plasmids encoding full-length LEPR of different species and STAT3-luciferase reporter gene into HEK293 cells (Table 4). […]
(§2) Before plating the cells for luciferase assays, the poly-D-Lysine coated 96-well plates (Corning Inc, #354651) were rinsed once with phosphate buffered solution (PBS). […] Cell lysing and One-Glo luciferase substrate solution (Promega, #E6120) were then added to each well, and relative luciferase units (RLUs) were measured on a ClarioStar plate reader. For each reporter cell line, positive control LEPR activation was calculated as the average RLUs stimulated by 20 nM recombinant human leptin protein (SEQ ID NO:27) minus the average RLUs of unstimulated cells and was set as maximum LEPR activation (100%). […]

[2] = molecular target: T1, rat-LEPR (Rattus norvegicus, UniProt Q62959); experiment: STAT3-luciferase reporter assay in HEK293-STAT3Luc-ratLepR3 cells; format: cell-based
T1 construct: introducing DNA plasmids encoding full-length LEPR of different species and STAT3-luciferase reporter gene into HEK293 cells; expressed in transfected cells; host or cells: HEK293 (HEK293-STAT3Luc-ratLepR3)
T1 sequence (Q62959 22-1162): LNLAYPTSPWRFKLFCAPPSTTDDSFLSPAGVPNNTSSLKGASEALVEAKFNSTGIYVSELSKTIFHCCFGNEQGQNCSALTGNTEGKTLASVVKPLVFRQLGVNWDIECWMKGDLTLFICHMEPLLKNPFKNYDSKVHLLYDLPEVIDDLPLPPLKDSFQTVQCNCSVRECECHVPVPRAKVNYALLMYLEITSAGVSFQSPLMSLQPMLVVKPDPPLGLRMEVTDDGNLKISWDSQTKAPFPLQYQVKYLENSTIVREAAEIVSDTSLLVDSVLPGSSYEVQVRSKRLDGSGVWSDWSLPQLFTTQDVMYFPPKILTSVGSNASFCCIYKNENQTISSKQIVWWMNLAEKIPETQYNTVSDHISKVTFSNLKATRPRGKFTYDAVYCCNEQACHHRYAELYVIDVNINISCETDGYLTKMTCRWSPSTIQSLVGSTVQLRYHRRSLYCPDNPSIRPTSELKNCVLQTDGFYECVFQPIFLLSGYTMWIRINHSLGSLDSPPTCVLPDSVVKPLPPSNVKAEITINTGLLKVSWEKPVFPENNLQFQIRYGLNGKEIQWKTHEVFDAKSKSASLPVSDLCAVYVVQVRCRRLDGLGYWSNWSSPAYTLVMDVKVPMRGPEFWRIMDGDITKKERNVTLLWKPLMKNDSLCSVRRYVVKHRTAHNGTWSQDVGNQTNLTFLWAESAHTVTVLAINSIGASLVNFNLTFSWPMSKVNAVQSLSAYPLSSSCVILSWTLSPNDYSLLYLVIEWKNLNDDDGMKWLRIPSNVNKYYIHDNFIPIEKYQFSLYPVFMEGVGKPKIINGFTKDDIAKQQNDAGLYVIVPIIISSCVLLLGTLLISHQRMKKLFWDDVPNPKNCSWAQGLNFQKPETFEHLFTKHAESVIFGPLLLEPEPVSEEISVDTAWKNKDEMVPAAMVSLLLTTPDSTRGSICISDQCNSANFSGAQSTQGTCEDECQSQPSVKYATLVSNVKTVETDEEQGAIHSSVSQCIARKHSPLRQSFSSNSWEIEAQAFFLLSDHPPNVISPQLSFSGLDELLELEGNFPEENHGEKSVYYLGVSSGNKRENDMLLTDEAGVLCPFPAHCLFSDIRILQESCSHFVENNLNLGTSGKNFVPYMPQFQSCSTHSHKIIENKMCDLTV
Description: as §1, §2

human leptin: recombinant human leptin protein (SEQ ID NO:27), positive control
EC50 ([1]; STAT3-luciferase, 20 hours, read-out: EC50 (nM) ± SEM): 0.674 ± 0.11 nM
Agonism (%) ± SEM ([1]; top of fitted curve vs response to 20 nM recombinant human leptin): 106.34%
EC50 ([2]; antibodies at concentrations up to 90 nM, read-out: EC50 (nM) ± SEM): 6.29 ± 0.62 nM
Agonism (%) ± SEM ([2]; vs 20 nM recombinant human leptin, antibodies up to 90 nM): 106.1%
